Legend:
female gametocytes = assay: 384-well microsphiltration readout 2 (anti-pfs25): retention of female gametocytes; format: cell-based; conditions: Plasmodium falciparum, read-out: IC50 during the screening campaign, only females stained
Experimental: Large scale microsphiltration was performed as previously described. Briefly, microsphiltration plates were prepared using a Biomek NX workstation (Beckman, cat. no. 989402) to load 15 μl of 25–45μm microspheres then 10 μl of a mixture of 30% 5–15μm and 70% (w/w) 15–25μm microspheres. The 384-well filter plates were then stored at -20 °C until use. In some of the 384-well microsphiltration plates leakage of microspheres occurred in one or more wells. The wells with leakages were sealed. Plates displaying more than 5 sealed wells were not used. Imaging plates were prepared by loading 30 μL of staining solution in each well of a collagen-coated plate. A different staining solution was used for each readout (1 and 2). Readout 1 counted both male and female gametocytes, using nucleic acid (Syto40, Thermo Fisher cat. no. S11351) and viability (MitoTracker Deep Red, Thermo Fisher cat. no. M22426) staining, and total RBCs using a cell membrane stain (CellMask Orange, Thermo Fisher cat. no. C10045). Readout 2 selectively quantified the retention and killing of female gametocytes. […] Imaging plates were incubated overnight at room temperature, then read in an OperaPhenix high-content confocal imaging system (Perkin Elmer, Waltham, MA, USA) and analyzed with Harmony high-content analysis software v. […]

[1] = Population PK modeling and simulation of TD-6450 (NONMEM); set-up: species or system human
Text: Data were pooled from two healthy volunteer studies, one single ascending dose (SAD) and the other multiple ascending dose (MAD). Observed concentration data were transformed into their natural logarithms and evaluated using nonlinear mixed-effects modeling in NONMEM v7.4 (Icon Development Solution, Ellicott City, MD). Pirana v3.0, Perl-speaks-NONMEM (PsN) v4.8.1, and Xpose version 4.7.1, were used for automation, model evaluation, and diagnostics during the model building process.
Different structural distribution models were evaluated (1-, 2-, and 3-compartment models) as well as different absorption models (first-order absorption and transit-compartment (n = 1–10) models). Relative bioavailability was fixed to unity for the population to evaluate inter-individual variability and the influence of covariates in the same parameter. […] Other biologically plausible covariate-parameter relationships (i.e. sex and age on all parameters, dose amount and duration of treatment on elimination clearance, absorption rate and relative bioavailability, concomitant food intake on absorption rate and relative bioavailability, and creatinine clearance on elimination clearance) were evaluated with a stepwise addition (p < 0.05) and elimination (p < 0.001) approach. All significant covariates in the forward step were evaluated with both linear and nonlinear functions, and the best-performing model was retained for the backward elimination step. Pharmacokinetic parameters were assumed to be log-normally distributed, and inter-individual variability (IIV) and inter-occasion variability (IOV) were implemented as exponential functions. Estimated IIV below 10% was removed in the final model, and IOV was estimated only on absorption parameters.
Model fit was evaluated primarily by the objective function value (OFV; calculated by NONMEM as proportional to −2 × log-likelihood of the data). Model discrimination between two hierarchical models was determined by a likelihood ratio test, based on the Chi-square distribution of the OFV (i.e. p-value < 0.05 corresponding to ΔOFV > 3.84, at a 1 degree of freedom difference). Goodness-of-fit was used to evaluate the descriptive performances of developed models. Prediction- and variability-corrected visual predictive checks (pvcVPC, n = 2000 simulations) were used to assess the predictive performance of developed models.

[2] = random effect, variance estimate
[3] = residual error, variance estimate
[4] = typical individual 80 kg, steady-state, high oral dose, fasting

## CNC(=O)N1C[C@@H](C)N(c2ccc(C(=O)Nc3ccc(-c4ccc(-c5c[nH]c([C@@H]6CCCN6C(=O)[C@@H](NC(=O)OC)C(C)C)n5)cc4)c(OC(F)(F)F)c3)cn2)C[C@@H]1C [TD-6450]
Female gametocytes
  IC50: 2.03 ± 0.35 µM
[1]; above 240 mg (240 to 500 mg)
  decrease in relative bioavailability per 100 mg increase in dose: 24.7%
[1]; covariate relationship
  Dose on CL/F, population estimate (%RSE): 1.35 (17.9)
  Dose on F, SIR median (95%CI): -0.241 (-0.207 to -0.284)
  Dose on F, population estimate (%RSE): -0.247 (7.92)
  Food on F, SIR median (95%CI): 0.683 (0.475 to 0.885)
  Food on F, population estimate (%RSE): 0.685 (15.0)
  Food on MTT, SIR median (95%CI): 0.927 (0.696 to 1.19)
  Food on MTT, population estimate (%RSE): 0.933 (10.3)
  Time dep. F, SIR median (95%CI): 0.441 (0.355 to 0.569)
  Time dep. F, population estimate (%RSE): 0.439 (12.5)
[1]; food covariate
  higher bioavailability when administered with food: 68.5%
  longer absorption time when administered with food: 93.3%
[1]; [2]
  IIV CL/F, population estimate (%RSE): 0.0148 (21.5)
  IIV F, SIR median (95%CI): 0.151 (0.110 to 0.207)
  IIV F, population estimate (%RSE): 0.150 (16.7)
  IIV MTT, SIR median (95%CI): 0.0683 (0.0551 to 0.0830)
  IIV MTT, population estimate (%RSE): 0.0683 (10.3)
  IIV Vc/F, SIR median (95%CI): 0.0394 (0.0246 to 0.0514)
  IIV Vc/F, population estimate (%RSE): 0.0391 (17.3)
  IIV Vp/F, SIR median (95%CI): 0.0719 (0.0568 to 0.0919)
  IIV Vp/F, population estimate (%RSE): 0.0713 (12.9)
  IOV F, SIR median (95%CI): 0.0622 (0.0445 to 0.0794)
  IOV F, population estimate (%RSE): 0.0631 (13.9)
  IOV MTT, SIR median (95%CI): 0.0870 (0.0613 to 0.118)
  IOV MTT, population estimate (%RSE): 0.0866 (17.1)
[1]; [3]
  RUV, SIR median (95%CI): 0.0568 (0.0520 to 0.0624)
  RUV, population estimate (%RSE): 0.242 (4.48)
[1]; sampling importance resampling
  CL/F, SIR median (95%CI): 12.1 (10.8 to 13.6) L/h
  MTT, SIR median (95%CI): 2.30 (2.13 to 2.50) h
  Q/F, SIR median (95%CI): 28.5 (22.5 to 35.5) L/h
  Vc/F, SIR median (95%CI): 539 (464 to 626) L
  Vp/F, SIR median (95%CI): 445 (384 to 513) L
[1]; [4]
  CL/F, population estimate (%RSE): 12.1 (6.19) L/h
  MTT, population estimate (%RSE): 2.30 (4.14) h
  Q/F, population estimate (%RSE): 28.4 (11.4) L/h
  Vc/F, population estimate (%RSE): 537 (7.89) L
  Vp/F, population estimate (%RSE): 444 (7.36) L

— article PMC10082216 (Nature Communications, 2023)
